Results published in patent US20230271954A1 (Gossamer Bio Services, Inc., priority 2020, published 2023).
pIC50: −log10 of the molar value. Structures can show the parent of a compound that is named as a salt.

Tests used:
DGKα = DGKα (Homo sapiens, UniProt P23743); assay: DGKα biochemical assay (ADP-Glo); conditions: read-out: DGK α IC50
How it was run: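 ADP-Glo kinase assay using OAG/PS (1:2) lipid substrate, sonicated, in HEPES pH 7.0 buffer with MgCl2, CaCl2, DTT, BSA, Triton X-100. Enzyme preincubated with compound 30 min at RT; substrate with ATP (DGKα: 400 μM) added, 45 min RT. Luminescence read; % inhibition vs DMSO and no-enzyme controls.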

DGKζ = target: T1, DGKζ (Homo sapiens, UniProt Q13574); assay: DGKζ biochemical assay (ADP-Glo); conditions: read-out: DGK ζ IC50
T1 construct: purchased Carna 12-110
T1 sequence (Q13574 1-929 isoform Q13574-4): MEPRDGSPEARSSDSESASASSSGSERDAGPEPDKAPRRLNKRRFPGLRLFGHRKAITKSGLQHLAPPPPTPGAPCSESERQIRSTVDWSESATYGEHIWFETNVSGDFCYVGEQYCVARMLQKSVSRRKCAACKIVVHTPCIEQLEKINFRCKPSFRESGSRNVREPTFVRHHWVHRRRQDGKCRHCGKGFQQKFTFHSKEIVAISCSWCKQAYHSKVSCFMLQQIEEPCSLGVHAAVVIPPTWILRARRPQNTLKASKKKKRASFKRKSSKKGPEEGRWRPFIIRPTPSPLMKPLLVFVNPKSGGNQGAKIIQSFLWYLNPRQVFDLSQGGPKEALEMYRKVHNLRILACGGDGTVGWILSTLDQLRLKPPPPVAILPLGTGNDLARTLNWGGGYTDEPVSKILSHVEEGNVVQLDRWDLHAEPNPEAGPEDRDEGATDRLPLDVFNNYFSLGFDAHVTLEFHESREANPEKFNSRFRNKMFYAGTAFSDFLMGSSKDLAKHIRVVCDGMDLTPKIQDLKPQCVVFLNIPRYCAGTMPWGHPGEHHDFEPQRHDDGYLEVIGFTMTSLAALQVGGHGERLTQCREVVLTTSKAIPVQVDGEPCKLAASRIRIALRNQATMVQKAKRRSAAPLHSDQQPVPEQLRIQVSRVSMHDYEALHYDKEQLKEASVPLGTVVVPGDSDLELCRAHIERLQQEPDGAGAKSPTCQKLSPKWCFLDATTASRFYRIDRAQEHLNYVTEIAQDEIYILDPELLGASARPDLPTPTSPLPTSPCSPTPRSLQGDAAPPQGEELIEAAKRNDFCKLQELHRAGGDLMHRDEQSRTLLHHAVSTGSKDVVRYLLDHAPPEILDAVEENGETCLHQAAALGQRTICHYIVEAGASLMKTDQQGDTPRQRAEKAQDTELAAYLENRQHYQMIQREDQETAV

Sequence of DGKα (P23743 whole entry): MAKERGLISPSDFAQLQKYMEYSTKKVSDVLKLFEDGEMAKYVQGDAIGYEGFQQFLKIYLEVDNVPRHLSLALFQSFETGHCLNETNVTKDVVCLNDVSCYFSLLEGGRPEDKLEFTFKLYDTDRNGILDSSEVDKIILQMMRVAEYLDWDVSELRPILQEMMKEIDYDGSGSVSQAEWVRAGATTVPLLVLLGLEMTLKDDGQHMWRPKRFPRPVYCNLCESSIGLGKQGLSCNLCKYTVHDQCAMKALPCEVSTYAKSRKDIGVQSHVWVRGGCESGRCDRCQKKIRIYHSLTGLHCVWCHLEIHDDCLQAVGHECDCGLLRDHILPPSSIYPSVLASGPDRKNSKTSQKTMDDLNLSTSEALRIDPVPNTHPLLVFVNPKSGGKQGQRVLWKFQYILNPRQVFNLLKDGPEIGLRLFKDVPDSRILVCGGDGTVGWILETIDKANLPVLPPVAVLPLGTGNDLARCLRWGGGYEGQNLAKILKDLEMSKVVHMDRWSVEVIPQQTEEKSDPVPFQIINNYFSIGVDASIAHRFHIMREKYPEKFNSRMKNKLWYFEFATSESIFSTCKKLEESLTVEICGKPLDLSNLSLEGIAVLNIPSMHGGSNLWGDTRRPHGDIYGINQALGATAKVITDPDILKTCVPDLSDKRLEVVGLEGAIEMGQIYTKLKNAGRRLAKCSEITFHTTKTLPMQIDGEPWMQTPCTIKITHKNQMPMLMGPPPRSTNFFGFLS

| SMILES | pIC50 (DGKα) | pIC50 (DGKζ) |
| --- | --- | --- |
| COc1cc(N(CC2CC2)[C@H]2CC[C@@H](N(C)c3cc(=O)n(C)c4ccc(C#N)nc34)CC2)ccc1F [Example 38, cis-8-((4-((cyclopropylmethyl)(4-fluoro-3-methoxyphenyl)amino)cyclohexyl)(methyl)amino)-5-methyl-6-oxo-5,6-dihydro-1,5-naphthyridine-2-carbonitrile] | 6.00 to 7.00 | 6.00 to 7.00 |
| Cn1c(=O)c(C#N)c(N(C)[C@H]2CC[C@@H](N(CC3CC3)c3ccc4c(c3)COC4)CC2)c2nc(C#N)ccc21 [Example 193, cis-8-((4-((cyclopropylmethyl)(1,3-dihydroisobenzofuran-5-yl)amino)cyclohexyl) (methyl)amino)-5-methyl-6-oxo-5,6-dihydro-1,5-naphthyridine-2,7-dicarbonitrile] | ≤ 6.00 | ≤ 6.00 |
| Cc1[nH]c2ccccc2c1C(=O)N[C@H]1CC[C@@H](N(CC2CC2)c2ccccc2)CC1 [Example 4A] | ≤ 6.00 | ≤ 6.00 |
| Cn1c(=O)c(C#N)c(N2CCC(N(CC3CC3)c3ccccc3O)CC2)c2nc(Cl)ccc21 [Example 1E, 6-Chloro-4-(4-((cyclopropylmethyl)(2-hydroxyphenyl)amino)piperidin-1-yl)-1-methyl-2-oxo-1,2-dihydro-1,5-naphthyridine-3-carbonitrile] | 7.00 to 8.00 | ≤ 6.00 |
| Cc1cc(F)ccc1N(CC1CN(C)CCO1)[C@H]1CC[C@H](N(C)c2c(C#N)c(=O)n(C)c3ccc(C#N)nc23)CC1 (stereo partly drawn) [Example 186, trans-8-((-4-((4-fluoro-2-methylphenyl)((4-methylmorpholinium-2-yl)methyl)amino)cyclohexyl) (methyl)amino)-5-methyl-6-oxo-5,6-dihydro-1,5-naphthyridine-2,7-dicarbonitrile trifluoroacetate] | 6.00 to 7.00 | ≤ 6.00 |

More lines, now with the values ahead:

| pIC50 (DGKα) | pIC50 (DGKζ) | SMILES |
| --- | --- | --- |
| 7.00 to 8.00 | 6.00 to 7.00 | Cn1c(=O)cc(N(C)[C@H]2CC[C@@H](N(CC3CC3)c3ccc4c(c3)COC4)CC2)c2nc(C#N)ccc21 [Example 192, cis-8-((4-((cyclopropylmethyl)(1,3-dihydroisobenzofuran-5-yl)amino)cyclohexyl) (methyl)amino)-5-methyl-6-oxo-5,6-dihydro-1,5-naphthyridine-2-carbonitrile] |
| 6.00 to 7.00 | 6.00 to 7.00 | Cc1cc(F)ccc1N(CC1CCCO1)C1CCC(N(C)c2c(C#N)c(=O)n(C)c3ccc(C#N)nc23)CC1 (stereo in doubt) [Example 153, cis-8-((-4-((4-fluoro-2-methylphenyl) ((tetrahydrofuran-2-yl)methyl)amino)cyclohexyl) (methyl)amino)-5-methyl-6-oxo-5,6-dihydro-1,5-naphthyridine-2,7-dicarbonitrile] |
| ≤ 6.00 | ≤ 6.00 | Cc1[nH]c2ccccc2c1C(=O)N[C@H]1CC[C@@H](N(CC2COC2)c2ccccc2)CC1 [Example 4D, cis-2-Methyl-N-(4-((oxetan-3-ylmethyl)(phenyl)amino)cyclohexyl)-1H-indole-3-carboxamide] |
| 7.00 to 8.00 | 6.00 to 7.00 | COc1cc(F)ccc1N(CC1CC1)[C@H]1CC[C@H](N(C)c2c(C#N)c(=O)n(C)c3ccc(Cl)nc23)CC1 [Example 108, trans-6-chloro-4-((-4-((cyclopropylmethyl)(4-fluoro-2-methoxyphenyl)amino)cyclohexyl)(methyl)amino)-1-methyl-2-oxo-1,2-dihydro-1,5-naphthyridine-3-carbonitrile] |
| > 8.00 | 7.00 to 8.00 | Cn1c(=O)c(C#N)c(N(C)[C@H]2CC[C@@H](N(C[C@H]3CCCOC3)c3ccc(F)cc3)CC2)c2nc(C#N)ccc21 [Example 68] |
